In ChEMBL document CHEMBL4270545, “Design, synthesis and biological evaluation of 3-piperazinecarboxylate sarsasapogenin derivatives as potential multifunctional anti-Alzheimer agents” (2018):
The source made the active and inactive calls. The calls are words filed in the database; no cut-off is given here.

Experiments:
[1] = system: PC-12; experiment: Neuroprotective activity against H2O2-induced cytotoxicity in rat PC12 cells assessed as cell viability at 10 uM after 24 hrs by MTT assay relative to control; assay type: functional; conditions: for viability at 10 µM: PC-12, 24 h, read-out: Activity
[2] = system: RAW264.7; experiment: Antiinflammatory activity in mouse RAW264.7 cells assessed as inhibition of LPS-induced nitric oxide production at 10 uM preincubated for 30 mins followed by LPS addition measured after 20 hrs by Griess assay relative to control; assay type: functional
[3] = system: PC-12; experiment: Neuroprotective activity against amyloid beta (1 to 42)-induced cytotoxicity in rat PC12 cells assessed as cell viability at 10 uM after 48 hrs by MTT assay (reference value: 55.3 to 64.4%); assay type: functional; conditions: PC-12, 48 h, read-out: Activity
[4] = system: PC-12; experiment: Neuroprotective activity against amyloid beta (1 to 42)-induced cytotoxicity in rat PC12 cells assessed as cell viability at 1 uM after 48 hrs by MTT assay (reference value: 55.3 to 64.4%); assay type: functional; conditions: PC-12, 48 h, read-out: Activity
[5] = system: Mus musculus; experiment: Antialzheimer activity in cognitive deficit ICR mouse model assessed as reduction in amyloid beta (1 to 42)-induced spatial memory impairment at 6 mg/kg, ig qd administered for 7 consecutive days by Morris water maze test; assay type: functional, organism-based
[6] = system: PC-12; experiment: Neuroprotective activity against H2O2-induced cytotoxicity in rat PC12 cells assessed as cell viability at 1 mM after 24 hrs by MTT assay relative to control; assay type: functional; conditions: PC-12, 24 h, read-out: Activity
[7] = system: PC-12; experiment: Neuroprotective activity against amyloid beta (1 to 42)-induced cytotoxicity in rat PC12 cells assessed as cell viability at 30 uM after 48 hrs by MTT assay (reference value: 55.3 to 64.4%); assay type: functional; conditions: PC-12, 48 h, read-out: Activity

| SMILES | viability at 10 µM [1] [%] | other results |
| --- | --- | --- |
| C[C@H]1CC[C@@]2(OC1)O[C@H]1C[C@H]3[C@@H]4CC[C@@H]5C[C@@H](OC(=O)N6CCN(Cc7ccc(F)cc7)CC6)CC[C@]5(C)[C@H]4CC[C@]3(C)[C@H]1[C@@H]2C | 7.2 |  |
| C[C@H]1CC[C@@]2(OC1)O[C@H]1C[C@H]3[C@@H]4CC[C@@H]5C[C@@H](OC(=O)N6CCN(Cc7ccc(C#N)cc7)CC6)CC[C@]5(C)[C@H]4CC[C@]3(C)[C@H]1[C@@H]2C | 26.4 | inhibition at 10 µM [2]: 21.6% |
| C[C@H]1CC[C@@]2(OC1)O[C@H]1C[C@H]3[C@@H]4CC[C@@H]5C[C@@H](OC(=O)N6CCN(S(=O)(=O)c7ccc(F)cc7)CC6)CC[C@]5(C)[C@H]4CC[C@]3(C)[C@H]1[C@@H]2C | 8.5 |  |
| COc1cc(CN2CCN(C(=O)O[C@H]3CC[C@@]4(C)[C@H](CC[C@@H]5[C@@H]4CC[C@]4(C)[C@@H]6[C@H](C[C@@H]54)O[C@]4(CC[C@H](C)CO4)[C@H]6C)C3)CC2)ccc1O | 43.9 | inhibition at 10 µM [2]: 24.4%; viability at 10 µM [3]: 91.3%; viability at 1 µM [4]: 55.8%; Activity [5]: Active |
| C[C@H]1CC[C@@]2(OC1)O[C@H]1C[C@H]3[C@@H]4CC[C@@H]5C[C@@H](OC(=O)N6CCN(Cc7ccc(O)cc7)CC6)CC[C@]5(C)[C@H]4CC[C@]3(C)[C@H]1[C@@H]2C | 5.8 |  |
| C[C@H]1CC[C@@]2(OC1)O[C@H]1C[C@H]3[C@@H]4CC[C@@H]5C[C@@H](OC(=O)N6CCN(S(=O)(=O)c7ccccc7)CC6)CC[C@]5(C)[C@H]4CC[C@]3(C)[C@H]1[C@@H]2C | 20.8 | inhibition [2]: inactive |
| Cc1ccc(CN2CCN(C(=O)O[C@H]3CC[C@@]4(C)[C@H](CC[C@@H]5[C@@H]4CC[C@]4(C)[C@@H]6[C@H](C[C@@H]54)O[C@]4(CC[C@H](C)CO4)[C@H]6C)C3)CC2)cc1 | 19.2 |  |
| CC(=O)N[C@@H](CS)C(=O)O [ACETYLCYSTEINE] |  | viability at 1000 µM [6]: 35.3% |
| C[C@H]1CC[C@@]2(OC1)O[C@H]1C[C@H]3[C@@H]4CC[C@@H]5C[C@@H](OC(=O)N6CCN(C(=O)c7ccc(N)cc7)CC6)CC[C@]5(C)[C@H]4CC[C@]3(C)[C@H]1[C@@H]2C |  | Activity [1]: inactive |
| C[C@H]1CC[C@@]2(OC1)O[C@H]1C[C@H]3[C@@H]4CC[C@@H]5C[C@@H](OC(=O)N6CCN(C(=O)c7ccccc7)CC6)CC[C@]5(C)[C@H]4CC[C@]3(C)[C@H]1[C@@H]2C | 17.6 |  |
| C[C@H]1CC[C@@]2(OC1)O[C@H]1C[C@H]3[C@@H]4CC[C@@H]5C[C@@H](OC(=O)N6CCN(C(=O)c7ccc(Cl)cc7)CC6)CC[C@]5(C)[C@H]4CC[C@]3(C)[C@H]1[C@@H]2C | 20.2 | inhibition [2]: inactive |
| CCS(=O)(=O)N1CCN(C(=O)O[C@H]2CC[C@@]3(C)[C@H](CC[C@@H]4[C@@H]3CC[C@]3(C)[C@@H]5[C@H](C[C@@H]43)O[C@]3(CC[C@H](C)CO3)[C@H]5C)C2)CC1 | 6.8 |  |
| COc1ccc(CN2CCN(C(=O)O[C@H]3CC[C@@]4(C)[C@H](CC[C@@H]5[C@@H]4CC[C@]4(C)[C@@H]6[C@H](C[C@@H]54)O[C@]4(CC[C@H](C)CO4)[C@H]6C)C3)CC2)cc1 | 33.1 | inhibition at 10 µM [2]: 1.3% |
| C[C@H]1CC[C@@]2(OC1)O[C@H]1C[C@H]3[C@@H]4CC[C@@H]5C[C@@H](OC(=O)N6CCNCC6)CC[C@]5(C)[C@H]4CC[C@]3(C)[C@H]1[C@@H]2C | 3.4 |  |
| COc1ccc(C(=O)N2CCN(C(=O)O[C@H]3CC[C@@]4(C)[C@H](CC[C@@H]5[C@@H]4CC[C@]4(C)[C@@H]6[C@H](C[C@@H]54)O[C@]4(CC[C@H](C)CO4)[C@H]6C)C3)CC2)cc1 | 17.7 |  |
| C[C@H]1CC[C@@]2(OC1)O[C@H]1C[C@H]3[C@@H]4CC[C@@H]5C[C@@H](OC(=O)N6CCN(Cc7ccccc7)CC6)CC[C@]5(C)[C@H]4CC[C@]3(C)[C@H]1[C@@H]2C | 18.7 |  |
| C[C@H]1CC[C@@]2(OC1)O[C@H]1C[C@H]3[C@@H]4CC[C@@H]5C[C@@H](O)CC[C@]5(C)[C@H]4CC[C@]3(C)[C@H]1[C@@H]2C [SARSASAPOGENIN] | 3.3 | viability at 10 µM [3]: 79.2%; viability at 30 µM [7]: 58.9% |
| CCCN1CCN(C(=O)O[C@H]2CC[C@@]3(C)[C@H](CC[C@@H]4[C@@H]3CC[C@]3(C)[C@@H]5[C@H](C[C@@H]43)O[C@]3(CC[C@H](C)CO3)[C@H]5C)C2)CC1 | 18.9 |  |
| C[C@H]1CC[C@@]2(OC1)O[C@H]1C[C@H]3[C@@H]4CC[C@@H]5C[C@@H](OC(=O)N6CCN(Cc7ccc(N(C)C)cc7)CC6)CC[C@]5(C)[C@H]4CC[C@]3(C)[C@H]1[C@@H]2C | 22 | inhibition at 10 µM [2]: 5.6% |
| Cc1ccc(S(=O)(=O)N2CCN(C(=O)O[C@H]3CC[C@@]4(C)[C@H](CC[C@@H]5[C@@H]4CC[C@]4(C)[C@@H]6[C@H](C[C@@H]54)O[C@]4(CC[C@H](C)CO4)[C@H]6C)C3)CC2)cc1 | 29.5 | inhibition at 10 µM [2]: 4.8% |
| C[C@H]1CC[C@@]2(OC1)O[C@H]1C[C@H]3[C@@H]4CC[C@@H]5C[C@@H](OC(=O)N6CCN(Cc7ccccc7O)CC6)CC[C@]5(C)[C@H]4CC[C@]3(C)[C@H]1[C@@H]2C | 36.6 | inhibition at 10 µM [2]: 15.2%; viability at 10 µM [3]: 95.3%; viability at 1 µM [4]: 59.3% |
